Measured values published in ChEMBL document CHEMBL1201862, “PubChem BioAssay data set” (2004).
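Grown in 96-well plates, cells were treated for 48 hours with each compound at five concentrations. Insufficient inhibition: endpoint recorded as highest concentration tested. GI50 = concentration required for 50% inhibition of growth.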 Activity calls are given as the source filed them. No stated cut-off is given here; in the data, active = GI50 up to about 1.1 µM and inactive = higher.

Assays:
Assay in all cases: inhibition of tumour cell growth, NCI panel, 48 h
[1] = tested on: A498
[2] = tested on: Malme-3M
[3] = tested on: OVCAR-5
[4] = tested on: CAKI-1
[5] = tested on: HCC 2998
[6] = tested on: RPMI-8226
[7] = tested on: KM12
[8] = tested on: NCI/ADR-RES
[9] = tested on: NCI-H226
[10] = tested on: CCRF-CEM
[11] = tested on: SK-MEL-2
[12] = tested on: 786-0
[13] = tested on: NCI-H522
[14] = tested on: UACC-257

Row | SMILES | GI50 [1] | GI50 [2] | GI50 [3] | GI50 [4] | GI50 [5] | GI50 [6] | GI50 [7] | GI50 [8] | GI50 [9] | GI50 [10] | GI50 [11] | GI50 [12] | GI50 [13] | GI50 [14]
1 | CNC(=O)c1cccc2c(Nc3ccc(NS(C)(=O)=O)cc3OC)c3cccc(C)c3nc12 | 0.0841 µM (active) | 0.43 µM (active) | 0.282 µM (active) | 0.0207 µM (active) | 0.568 µM (active) | 0.0525 µM (active) | 0.479 µM (active) | 2.26 µM (inactive) | 0.0546 µM (active) | 0.0133 µM (active) | 1.64 µM (inactive) | 0.0483 µM (active) | 0.279 µM (active) | 1.7 µM (inactive)
2 | COC(=O)C1=C(C(=O)OC)C2(C)OC1C(=O)C21CC1 (stereo not drawn) |  | 23.9 µM (inactive) | > 100 µM (inactive) | 18.6 µM (inactive) | 25.5 µM (inactive) | 16.9 µM (inactive) | 30.5 µM (inactive) |  | > 100 µM (inactive) | 16.9 µM (inactive) | > 100 µM (inactive) | 38.7 µM (inactive) | 11.2 µM (inactive) | 57.1 µM (inactive)
3 | CC(=O)OC1C(CCl)OC(N=[N+]=[N-])C(OC(C)=O)C1OC(C)=O (stereo not drawn) | > 100 µM (inactive) | > 100 µM (inactive) |  | > 100 µM (inactive) | > 100 µM (inactive) | > 100 µM (inactive) | > 100 µM (inactive) |  |  | > 100 µM (inactive) | > 100 µM (inactive) | > 100 µM (inactive) | > 100 µM (inactive) | > 100 µM (inactive)
4 | O=C(O)C1(c2ccccc2)CCCNCC1 (stereo not drawn) | > 100 µM (inactive) | > 100 µM (inactive) | > 100 µM (inactive) | > 100 µM (inactive) | > 100 µM (inactive) | > 100 µM (inactive) | > 100 µM (inactive) |  | > 100 µM (inactive) | > 100 µM (inactive) | > 100 µM (inactive) | > 100 µM (inactive) | > 100 µM (inactive) | > 100 µM (inactive)
5 | CN(C)C(=S)/N=c1\ssc(=S)n1-c1ccccc1 | 21.3 µM (inactive) | 16.9 µM (inactive) | 16 µM (inactive) | 19.2 µM (inactive) | 19.6 µM (inactive) |  | 5.38 µM (inactive) |  | 10.1 µM (inactive) | 0.36 µM (active) | 8.75 µM (inactive) | 16.8 µM (inactive) | 14.5 µM (inactive) | 15.7 µM (inactive)
6 | COc1cc(C2(C)SCCCS2)c(I)c(OC)c1OC | > 100 µM (inactive) | > 100 µM (inactive) | > 100 µM (inactive) | > 100 µM (inactive) | > 100 µM (inactive) | > 100 µM (inactive) | > 100 µM (inactive) |  | > 100 µM (inactive) | > 100 µM (inactive) | > 100 µM (inactive) | > 100 µM (inactive) | > 100 µM (inactive) | > 100 µM (inactive)
7 | Cc1cc(NS(=O)(=O)c2ccc(NC(=O)c3ccc(Cl)c4c(Nc5ccc(S(=O)(=O)N=C(N)N)cc5)c5ccccc5nc34)cc2)no1 | > 100 µM (inactive) | > 100 µM (inactive) | > 100 µM (inactive) |  | 22.3 µM (inactive) | 59.7 µM (inactive) | 40.6 µM (inactive) |  |  | 28.3 µM (inactive) |  | 45.6 µM (inactive) | 20 µM (inactive) | > 100 µM (inactive)
8 | CP(C)C.[Ag][I] |  | 39.6 µM (inactive) | > 100 µM (inactive) | > 100 µM (inactive) | > 100 µM (inactive) | > 100 µM (inactive) | > 100 µM (inactive) |  | > 100 µM (inactive) | 22 µM (inactive) | > 100 µM (inactive) | > 100 µM (inactive) |  | > 100 µM (inactive)
9 | COc1ccc2[nH]cc(CCNC(C)=O)c2c1 [MELATONIN] | > 100 µM (inactive) | > 100 µM (inactive) | > 100 µM (inactive) | > 100 µM (inactive) |  | 22.1 µM (inactive) | > 100 µM (inactive) |  |  | > 100 µM (inactive) | > 100 µM (inactive) | 88.5 µM (inactive) | > 100 µM (inactive) | > 100 µM (inactive)
10 | COc1cc(N)c2[nH]c3c(C)ccc(C)c3c2c1 |  | > 100 µM (inactive) | > 100 µM (inactive) | > 100 µM (inactive) | > 100 µM (inactive) | > 100 µM (inactive) | > 100 µM (inactive) |  | > 100 µM (inactive) | > 100 µM (inactive) | > 100 µM (inactive) | > 100 µM (inactive) | > 100 µM (inactive) | > 100 µM (inactive)
11 | COC(=O)/C(=N\NC(=S)NN)C(C(=O)C(=O)Nc1ccccc1C(N)=O)c1nc2ccccc2nc1O (stereo not drawn) |  | > 100 µM (inactive) | > 100 µM (inactive) | > 100 µM (inactive) | > 100 µM (inactive) | > 100 µM (inactive) | > 100 µM (inactive) |  | > 100 µM (inactive) | > 100 µM (inactive) | > 100 µM (inactive) | > 100 µM (inactive) | > 100 µM (inactive) | > 100 µM (inactive)
12 | CC(C)(C)C(=O)OC12/C(=N/O)CCCCCC1c1ccccc12 (stereo not drawn) | 16.9 µM (inactive) | 21 µM (inactive) | 15.3 µM (inactive) | 11.9 µM (inactive) | > 100 µM (inactive) | 11.9 µM (inactive) | 16.1 µM (inactive) |  | 17.7 µM (inactive) | 23.4 µM (inactive) | 19.2 µM (inactive) | 17.2 µM (inactive) | 17.8 µM (inactive) | 15 µM (inactive)
13 | Cc1ccc(C2=Nc3ccccc3SC(c3cccc4c3OCO4)C2)cc1 (stereo not drawn) | 14.7 µM (inactive) | 24.1 µM (inactive) | 21.8 µM (inactive) | 16.1 µM (inactive) | 20.9 µM (inactive) | 17.7 µM (inactive) | 15.7 µM (inactive) |  | 18.1 µM (inactive) | 15.7 µM (inactive) | 20.3 µM (inactive) | 19 µM (inactive) | 13.9 µM (inactive) | 18 µM (inactive)
14 | O=C1CCN2C(=Nc3cccc4cccc2c34)N1 |  |  | > 100 µM (inactive) |  | > 100 µM (inactive) | > 100 µM (inactive) |  |  | > 100 µM (inactive) | > 100 µM (inactive) |  | 26.1 µM (inactive) |  | > 100 µM (inactive)
15 | CCOC(=O)C1=C(O)C(=O)c2ccsc2C1=O | > 100 µM (inactive) | > 100 µM (inactive) | > 100 µM (inactive) | > 100 µM (inactive) | > 100 µM (inactive) | > 100 µM (inactive) | > 100 µM (inactive) |  | > 100 µM (inactive) | > 100 µM (inactive) | > 100 µM (inactive) | > 100 µM (inactive) | 69.3 µM (inactive) | > 100 µM (inactive)
16 | COc1cccc(-c2cc(O)c3ccccc3n2)c1 | 11.4 µM (inactive) | 3.89 µM (inactive) | 7.43 µM (inactive) |  | 6.58 µM (inactive) | 5.45 µM (inactive) | 4.03 µM (inactive) |  | 6.89 µM (inactive) | 4.56 µM (inactive) | 24.9 µM (inactive) | 5.25 µM (inactive) | 3.06 µM (inactive) | 2.32 µM (inactive)
17 | CC(=O)OC1CC2C(C)(C)C(=O)C=C[C@]2(C)C2CCC3(C)C(c4ccoc4)C(=O)C4OC43[C@]12C (stereo partly drawn) | 17.6 µM (inactive) | 15.2 µM (inactive) | 29.4 µM (inactive) | 28.5 µM (inactive) | 16.7 µM (inactive) | 2.77 µM (inactive) | 15.1 µM (inactive) |  | 16.2 µM (inactive) | 20.8 µM (inactive) | 16 µM (inactive) | 25.9 µM (inactive) | 12.9 µM (inactive) | 15.7 µM (inactive)
18 | Cc1cccc(C)c1NC(=O)CCc1n[nH]c(=S)o1 | > 100 µM (inactive) | > 100 µM (inactive) | > 100 µM (inactive) | > 100 µM (inactive) | > 100 µM (inactive) | 22.2 µM (inactive) | > 100 µM (inactive) |  | > 100 µM (inactive) | > 100 µM (inactive) |  | 71.9 µM (inactive) | > 100 µM (inactive) | > 100 µM (inactive)
19 | CCOC(=O)C(NO)C(Sc1ccccc1)c1ccc(OC)cc1 (stereo not drawn) |  | > 100 µM (inactive) | > 100 µM (inactive) |  | > 100 µM (inactive) | 55.3 µM (inactive) | 78.5 µM (inactive) |  | 81.8 µM (inactive) |  | > 100 µM (inactive) | > 100 µM (inactive) | 34.8 µM (inactive) | 65.9 µM (inactive)
20 | COc1ccc(N2C(=O)/C(=C/c3ccc(N(CCC#N)CCC#N)cc3C)N=C2/C=C\c2ccccc2)cc1 |  | 41.6 µM (inactive) | > 100 µM (inactive) | 29.2 µM (inactive) |  | 41.1 µM (inactive) | 28.1 µM (inactive) |  | > 100 µM (inactive) | 24 µM (inactive) | > 100 µM (inactive) | 44.4 µM (inactive) | 17 µM (inactive) | 99.1 µM (inactive)
21 | COc1cccc(/C=C(/C(=O)O)c2cc(OC)c(OC)c(OC)c2)c1 | > 100 µM (inactive) | > 100 µM (inactive) |  | > 100 µM (inactive) |  | > 100 µM (inactive) | > 100 µM (inactive) |  | > 100 µM (inactive) | 46.5 µM (inactive) |  | > 100 µM (inactive) | > 100 µM (inactive) | > 100 µM (inactive)
22 | C=C[C@@]12CCCCC1C/C(=C(/O)OC)C(=O)C2 (stereo partly drawn) |  |  | > 100 µM (inactive) | > 100 µM (inactive) | > 100 µM (inactive) | > 100 µM (inactive) | > 100 µM (inactive) |  | > 100 µM (inactive) | > 100 µM (inactive) | > 100 µM (inactive) | > 100 µM (inactive) | > 100 µM (inactive) | > 100 µM (inactive)
23 | O=C(O)c1nccnc1C(=O)O |  | > 100 µM (inactive) | > 100 µM (inactive) | > 100 µM (inactive) | > 100 µM (inactive) | > 100 µM (inactive) | > 100 µM (inactive) |  | > 100 µM (inactive) | > 100 µM (inactive) | > 100 µM (inactive) | > 100 µM (inactive) | > 100 µM (inactive) | > 100 µM (inactive)
